Measured values: BindingDB's records for patent US11046658 (Incyte, 2021)

Legend:
[1] = target: T1, Phosphatidylinositol 4,5-bisphosphate 3-kinase catalytic subunit delta isoform (Homo sapiens, UniProt O00329); assay: PI3Kdelta Scintillation Proximity Assay
T1 sequence (O00329 whole entry): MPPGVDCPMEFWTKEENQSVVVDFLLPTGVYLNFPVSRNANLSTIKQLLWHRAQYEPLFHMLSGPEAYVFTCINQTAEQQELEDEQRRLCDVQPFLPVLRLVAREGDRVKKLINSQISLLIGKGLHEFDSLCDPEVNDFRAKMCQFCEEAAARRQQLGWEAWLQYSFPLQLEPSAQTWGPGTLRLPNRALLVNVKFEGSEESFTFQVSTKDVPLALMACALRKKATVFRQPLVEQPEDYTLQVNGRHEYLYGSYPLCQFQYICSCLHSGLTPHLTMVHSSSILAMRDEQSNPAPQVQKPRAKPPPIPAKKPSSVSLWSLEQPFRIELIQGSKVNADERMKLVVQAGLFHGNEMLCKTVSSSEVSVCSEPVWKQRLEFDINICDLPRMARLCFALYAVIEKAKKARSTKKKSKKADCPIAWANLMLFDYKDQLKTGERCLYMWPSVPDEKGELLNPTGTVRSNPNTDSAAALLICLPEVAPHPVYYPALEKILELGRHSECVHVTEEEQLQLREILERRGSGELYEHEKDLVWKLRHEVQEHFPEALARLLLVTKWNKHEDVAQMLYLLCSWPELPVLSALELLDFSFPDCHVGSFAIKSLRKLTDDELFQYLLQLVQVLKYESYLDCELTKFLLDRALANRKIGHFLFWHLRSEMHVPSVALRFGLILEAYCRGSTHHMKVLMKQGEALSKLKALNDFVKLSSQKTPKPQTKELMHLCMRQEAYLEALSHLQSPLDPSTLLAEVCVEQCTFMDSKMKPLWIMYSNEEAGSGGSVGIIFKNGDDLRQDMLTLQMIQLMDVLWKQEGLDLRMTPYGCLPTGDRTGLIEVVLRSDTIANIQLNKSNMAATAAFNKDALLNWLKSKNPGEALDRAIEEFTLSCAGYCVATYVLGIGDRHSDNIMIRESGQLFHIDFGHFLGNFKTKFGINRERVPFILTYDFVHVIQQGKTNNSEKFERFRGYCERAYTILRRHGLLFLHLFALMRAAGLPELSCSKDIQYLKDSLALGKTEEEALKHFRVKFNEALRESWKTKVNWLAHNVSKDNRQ
Description: (§1) Materials: [γ-33P]ATP (10 mCi/mL) and Wheat Germ Agglutinin (WGA) YSi SPA Scintillation Beads was purchased from Perkin Elmer (Waltham, Mass.). Lipid kinase substrate, D-myo-Phosphatidylinositol 4,5-bisphosphate (PtdIns(4,5)P2)D (+)-sn-1,2-di-O-octanoylglyceryl, 3-O-phospho linked (PIP2), CAS 204858-53-7, was purchased from Echelon Biosciences (Salt Lake City, Utah). PI3Kδ (p110δ/p85α) Recombinant Human Protein was purchased from Eurofins (St Charles, Mo.). ATP, MgCl2, DTT, EDTA, MOPS and CHAPS were purchased from Sigma Aldrich (St. Louis, Mo.).The kinase reaction was conducted in polystyrene 384-well Greiner Bio-one white plate from Thermo Fisher Scientific in a final volume of 25 μL. Inhibitors were first diluted serially in DMSO and added to the plate wells before the addition of other reaction components. The final concentration of DMSO in the assay was 2%. The PI3Kδ assay was carried out at room temperature in 20 mM MOPS, pH 6.7, 10 mM MgCl2, 5 mM DTT and CHAPS 0.03%. Reactions were initiated by the addition of ATP, the final reaction mixture consisted of 20 μM PIP2, 2 μM ATP, 0.5 μCi [γ-33P] ATP, 3.4 nM PI3Kδ. […] After the plate sealing, plates were shaken overnight at room temperature and centrifuged at 1500 rpm for 10 min, the radioactivity of the product was determined by scintillation counting on Topcount (PerkinElmer). […]

[2] = target: Phosphatidylinositol 4,5-bisphosphate 3-kinase catalytic subunit gamma isoform (Homo sapiens, UniProt P48736); assay: PI3K-gamma Scintillation Proximity Assay
Sequence of Phosphatidylinositol 4,5-bisphosphate 3-kinase catalytic subunit gamma isoform (P48736 whole entry, canonical isoform): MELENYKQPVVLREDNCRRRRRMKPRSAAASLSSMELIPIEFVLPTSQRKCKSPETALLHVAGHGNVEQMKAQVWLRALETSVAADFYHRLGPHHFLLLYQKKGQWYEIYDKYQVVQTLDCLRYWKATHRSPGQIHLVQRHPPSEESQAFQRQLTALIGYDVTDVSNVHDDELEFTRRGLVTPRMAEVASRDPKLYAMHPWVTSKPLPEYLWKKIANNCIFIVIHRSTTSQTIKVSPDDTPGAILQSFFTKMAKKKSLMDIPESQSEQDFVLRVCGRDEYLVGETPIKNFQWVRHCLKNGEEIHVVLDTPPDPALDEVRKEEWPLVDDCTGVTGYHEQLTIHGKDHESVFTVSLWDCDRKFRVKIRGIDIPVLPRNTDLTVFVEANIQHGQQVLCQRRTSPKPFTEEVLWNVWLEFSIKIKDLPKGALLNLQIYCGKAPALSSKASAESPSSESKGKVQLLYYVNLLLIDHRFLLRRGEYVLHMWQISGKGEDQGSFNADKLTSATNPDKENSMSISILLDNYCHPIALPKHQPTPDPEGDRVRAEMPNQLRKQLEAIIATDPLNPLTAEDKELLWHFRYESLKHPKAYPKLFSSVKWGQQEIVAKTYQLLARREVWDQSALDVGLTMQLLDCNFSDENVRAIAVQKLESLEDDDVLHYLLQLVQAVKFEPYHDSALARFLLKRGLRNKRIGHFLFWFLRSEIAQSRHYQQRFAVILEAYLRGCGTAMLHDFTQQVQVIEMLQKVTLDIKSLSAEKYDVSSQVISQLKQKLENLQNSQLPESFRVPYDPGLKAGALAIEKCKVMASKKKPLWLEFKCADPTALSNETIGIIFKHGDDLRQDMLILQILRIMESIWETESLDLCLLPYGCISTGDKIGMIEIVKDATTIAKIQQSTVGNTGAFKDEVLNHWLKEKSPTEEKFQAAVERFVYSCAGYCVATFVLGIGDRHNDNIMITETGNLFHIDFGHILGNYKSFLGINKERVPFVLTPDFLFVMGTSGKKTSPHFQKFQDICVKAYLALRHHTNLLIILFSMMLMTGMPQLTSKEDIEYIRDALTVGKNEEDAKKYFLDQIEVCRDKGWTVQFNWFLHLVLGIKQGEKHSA
Description: as §1, with “PI3Kγ (p110γ)” for “PI3Kδ (p110δ/p85α)”, “Life technology (Grand Island, N.Y.).” for “Eurofins (St Charles, Mo.).”, “PI3Kγ” for “PI3Kδ”, “13” for “3.4”, “PI3Kγ.” for “PI3Kδ.”, “(Perkin-Elmer).” for “(PerkinElmer).”

- IC50 [1]: < 100 nM
- IC50 [2]: < 100 nM
SMILES: C#Cc1ccccc1N1CCN(c2nc(-c3cc(C(O)(C(N)=O)C(F)(F)F)ccc3C)cnc2N)CC1 (configuration not stated) [US11046658, Example 122]
